What was measured:
[1] = test system: PBMCs of patients with chronic HCV infection; assay type: cell-based, human; conditions: HCV core 178 stimulation; result in words
[2] = test system: CTLs in the peripheral blood of patients with chronic HCV infection; conditions: cited from earlier work
[3] = test system: PBMCs from healthy HCV-seronegative blood donors; assay type: cell-based, human; conditions: of 12 healthy donors
[4] = after stimulation with HCV core 178

LLALLSCLTV [HCV core 178]
percentage of patients having cross-reactive CTLs compared with healthy donors [1]: comparable to that of healthy donors | processing and presentation of the peptide [2]: processed and presented via the endogenous MHC class I pathway | recognition by CTLs in patients with chronic HCV infection ([2]; peripheral blood): target epitope for CTLs | blood donors with induced HCV core 178–specific CTLs ([3]; 10 μg/ml peptide, four replica cultures, 5 wk stimulation): nine | individuals recognizing HCV core 178 and CYP2A7 8–17 [3, 4]: three | individuals recognizing HCV core 178 only [3, 4]: four | individuals without CTL response [3, 4]: three

Source: article PMC2195568 (The Journal of Experimental Medicine, 1999)
